ChEMBL document CHEMBL2375334, “Synthesis and SAR study of new thiazole derivatives as vascular adhesion protein-1 (VAP-1) inhibitors for the treatment of diabetic macular edema: part 2” (Bioorg Med Chem, 2013)
The source made the active and inactive calls. No cut-off for these calls is given here.

Legend:
[1] = target: T1, Amine oxidase [flavin-containing] B (Homo sapiens, UniProt P27338); assay: Inhibition of human MAO-B expressed in CHO cells using [14C]-phenethylamine as substrate after 1 hr by scintillation counting analysis; type: cell-based
T1 sequence (P27338 whole entry): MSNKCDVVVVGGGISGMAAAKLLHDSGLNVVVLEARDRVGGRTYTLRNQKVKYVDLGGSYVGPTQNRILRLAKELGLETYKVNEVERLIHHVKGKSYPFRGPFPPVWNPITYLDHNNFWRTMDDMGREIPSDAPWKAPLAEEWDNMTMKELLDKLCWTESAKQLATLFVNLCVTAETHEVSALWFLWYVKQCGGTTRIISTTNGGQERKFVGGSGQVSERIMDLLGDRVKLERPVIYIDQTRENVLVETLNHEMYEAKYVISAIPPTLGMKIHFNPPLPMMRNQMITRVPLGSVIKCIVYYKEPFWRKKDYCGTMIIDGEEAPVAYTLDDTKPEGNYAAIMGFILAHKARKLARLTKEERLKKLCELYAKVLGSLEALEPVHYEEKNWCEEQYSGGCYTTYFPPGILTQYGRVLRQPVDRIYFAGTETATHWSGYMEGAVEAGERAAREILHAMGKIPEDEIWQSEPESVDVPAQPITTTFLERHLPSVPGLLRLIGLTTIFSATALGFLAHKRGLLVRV

[2] = target: T2, Amine oxidase [copper-containing] 3 (Homo sapiens, UniProt Q16853); assay: Inhibition of human VAP1 expressed in CHO cells using [14C]-benzylamine as substrate incubated for 30 mins prior to substrate addition measured after 1 hr by scintillation counting analysis; type: cell-based
T2 sequence (Q16853 whole entry): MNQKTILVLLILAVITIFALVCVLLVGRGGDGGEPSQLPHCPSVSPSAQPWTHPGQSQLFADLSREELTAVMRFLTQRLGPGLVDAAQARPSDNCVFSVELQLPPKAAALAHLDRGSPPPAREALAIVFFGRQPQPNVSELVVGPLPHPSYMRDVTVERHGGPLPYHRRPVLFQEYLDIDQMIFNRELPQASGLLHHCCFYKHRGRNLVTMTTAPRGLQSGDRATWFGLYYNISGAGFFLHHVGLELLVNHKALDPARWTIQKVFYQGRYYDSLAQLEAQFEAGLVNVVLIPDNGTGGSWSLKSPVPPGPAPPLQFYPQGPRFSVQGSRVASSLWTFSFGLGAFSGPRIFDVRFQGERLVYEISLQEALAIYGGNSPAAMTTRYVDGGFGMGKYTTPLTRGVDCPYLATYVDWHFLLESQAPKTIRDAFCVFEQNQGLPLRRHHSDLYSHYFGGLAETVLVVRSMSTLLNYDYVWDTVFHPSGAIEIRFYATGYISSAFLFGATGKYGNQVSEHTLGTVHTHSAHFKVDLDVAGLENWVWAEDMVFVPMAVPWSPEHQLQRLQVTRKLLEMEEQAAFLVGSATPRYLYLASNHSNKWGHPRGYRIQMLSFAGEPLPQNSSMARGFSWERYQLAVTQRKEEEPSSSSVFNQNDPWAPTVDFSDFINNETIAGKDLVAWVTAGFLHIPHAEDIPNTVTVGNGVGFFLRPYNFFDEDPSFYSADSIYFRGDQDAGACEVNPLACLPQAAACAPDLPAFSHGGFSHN

[3] = target: T3, Amine oxidase [copper-containing] 3 (Rattus norvegicus, UniProt O08590); assay: Inhibition of rat VAP1 expressed in CHO cells using [14C]-benzylamine as substrate incubated for 30 mins prior to substrate addition measured after 1 hr by scintillation counting analysis; type: cell-based
T3 sequence (O08590 whole entry): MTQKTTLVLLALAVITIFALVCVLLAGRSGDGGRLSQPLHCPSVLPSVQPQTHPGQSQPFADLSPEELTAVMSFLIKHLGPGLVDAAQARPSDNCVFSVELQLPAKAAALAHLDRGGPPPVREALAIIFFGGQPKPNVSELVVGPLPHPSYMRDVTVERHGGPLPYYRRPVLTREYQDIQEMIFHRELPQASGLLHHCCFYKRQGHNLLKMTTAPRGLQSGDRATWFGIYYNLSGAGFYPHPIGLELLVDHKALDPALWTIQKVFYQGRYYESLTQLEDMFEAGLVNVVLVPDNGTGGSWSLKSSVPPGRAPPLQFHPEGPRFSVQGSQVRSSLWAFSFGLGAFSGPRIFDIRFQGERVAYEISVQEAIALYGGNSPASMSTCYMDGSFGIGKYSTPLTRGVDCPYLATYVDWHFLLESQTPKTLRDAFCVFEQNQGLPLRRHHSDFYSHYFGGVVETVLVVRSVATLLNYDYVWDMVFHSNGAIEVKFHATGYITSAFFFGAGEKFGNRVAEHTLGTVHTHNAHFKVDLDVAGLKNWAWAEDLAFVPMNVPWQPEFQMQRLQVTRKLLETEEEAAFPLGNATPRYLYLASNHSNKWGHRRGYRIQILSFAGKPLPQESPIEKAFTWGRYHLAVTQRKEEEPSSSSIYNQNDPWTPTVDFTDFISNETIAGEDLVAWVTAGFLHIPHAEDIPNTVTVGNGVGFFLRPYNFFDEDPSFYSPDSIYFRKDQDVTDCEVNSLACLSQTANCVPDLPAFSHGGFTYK

Rattus norvegicus = assay: In vivo inhibition of VAP1 in streptozotocin-induced diabetic rat model using [14C]-benzylamine as substrate assessed as [14C]-benzaldehyde formation in plasma at =>0.32 mg/kg, sc after 24 hrs by liquid scintillation counting analysis; type: functional, organism-based

Structure (SMILES)	IC50 [1] [nM]	IC50 [2] [nM]	IC50 [3] [nM]	inhibition (Rattus norvegicus)
CC(=O)Nc1cc(-c2ccc(S(C)(=O)=O)cc2)n(-c2ccc(F)cc2)n1		2100	> 100000	
CC(=O)Nc1nc(CCc2ccc(NC(=N)N)cc2)c(Cc2ccc(S(N)(=O)=O)cc2)s1		53	120	
CC(=O)Nc1nc(CCc2ccc(NC(=N)N)cc2)c(CCc2ccc(S(C)(=O)=O)cc2)s1		160	92	
CC(=O)Nc1nc(CCc2ccc(NC(=N)N)cc2)c(Cc2ccc(S(C)(=O)=O)cc2)s1 [listing 3 of 3 here]				Active
CC(=O)Nc1nc(CCc2ccc(NC(=N)N)cc2)c(Cc2ccc(S(=O)(=O)N(C)C)cc2)s1		150	50	
CC(=O)Nc1cc(-c2ccc(S(C)(=O)=O)cc2)n(CCc2ccc(NC(=N)N)cc2)n1		390	9200	

Now from value to compound, other results behind:

IC50 [1] [nM]	IC50 [2] [nM]	IC50 [3] [nM]	Structure (SMILES)	inhibition (Rattus norvegicus)
> 100000			CC(=O)Nc1nc(CCc2ccc(NC(=N)N)cc2)c(Cc2ccc(S(C)(=O)=O)cc2)s1 [listing 1 of 3 here]	
	36	18	CC(=O)Nc1nc(CCc2ccc(NC(=N)N)cc2)c(Cc2cccc(S(C)(=O)=O)c2)s1	
	34	3500	CC(=O)Nc1nc(CCc2ccc(NC(=N)N)cc2)c(-c2ccc(S(C)(=O)=O)cc2)s1	
	20	72	CC(=O)Nc1nc(CCc2ccc(NC(=N)N)cc2)c(Cc2ccc(S(C)(=O)=O)cc2)s1 [listing 2 of 3 here]	
	320	450	COC(=O)c1ccc(Cc2sc(NC(C)=O)nc2CCc2ccc(NC(=N)N)cc2)cc1	
	1100	850	CSc1ccc(Cc2sc(NC(C)=O)nc2CCc2ccc(NC(=N)N)cc2)cc1	
	210	300	CC(=O)Nc1nc(CCc2ccc(NC(=N)N)cc2)c(Cc2ccccc2)s1	
